These results are taken from US11926602B1, “4-amino-5-(4-fluoro-3-phenoxyphenyl)-4H-1,2,4-triazole-3-thiol derivatives as antifungal agents” (KING FAISAL UNIVERSITY, priority 2023, dated 2024).

The subject of series [1] is Candida albicans (ATCC RCMB 05064). Description: Antifungal microdilution assay, MIC against Candida albicans. The conditions noted are these: RCMB05064, 0.49-125 μg/mL tested over 48 h, read-out: Minimum inhibitory concentration C. albicans. Format: cell-based. As for the experimental part:
(§1) The calculation of the minimum inhibitory concentrations (MICs) for the tested compounds was done against Candida parapsilosis (ATCC RCMB 05064); Candida albicans (ATCC RCMB 05064): Candida tropicalis (ATCC RCMB 05064); Aspergillus niger (ATCC RCMB 05064); Trichophyton rubrum (ATCC RCMB 05064). Microdilution assay was used to evaluate the tested compounds (2, 2a-2h) for their antifungal activity (Anaissie, E. J.; Paetznick, V. L.; Ensign, L. G.; Espinel-Ingroff, A.; Galgiani, J. N.; Hitchcock, C. A.; LaRocco. M.; Patterson. T.; Pfaller, M. A.; Rex, J. H.; et al. Microdilution antifungal susceptibility testing of Candida albicans and Cryptococcus neoformans with and without agitation: An eight-center collaborative study. Antimicrob. Agents Chemother. 1996, 40, 2387-2391). Different concentrations were tested from each compound; 0.49, 0.98, 1.95, 3.9, 7.81, 15.63, 31.25, 62.5, and 125 μg/mL over 48 h.
(§2) The observed antifungal activity of the present 4-amino-5-(4-fluoro-3-phenoxyphenyl)-4H-1,2,4-triazole-3-thiol (2) and its derivatives (2a-h) against various fungi are summarized below in Table 2.

For series [2], the system named is Aspergillus niger (ATCC RCMB 05064). Description: Antifungal microdilution assay, MIC against Aspergillus niger. Format: cell-based. The conditions noted are these: RCMB05064, 0.49-125 μg/mL tested over 48 h, read-out: Minimum inhibitory concentration A. niger. The procedure: as §1, §2
(Broth dilution looks for growth in wells or tubes with falling amounts of substance.)

In series [3] the test system is Candida parapsilosis (ATCC RCMB 05064). The series is described as follows: Antifungal microdilution assay, MIC against Candida parapsilosis. It is filed as cell-based. The conditions noted are these: Lodderomyces parapsilosis, RCMB05064, 0.49-125 μg/mL tested over 48 h, read-out: Minimum inhibitory concentration C. parapsilosis. As for the experimental part:
as §1, §2

The test system of series [4] is Trichophyton rubrum (ATCC RCMB 05064). The series is described as follows: Antifungal microdilution assay, MIC against Trichophyton rubrum. Format: cell-based. The conditions noted are these: RCMB05064, 0.49-125 μg/mL tested over 48 h, read-out: Minimum inhibitory concentration T. rubrum. As for the experimental part: as §1, §2
Series [5] relates to Candida tropicalis (ATCC RCMB 05064). The series is described as follows: Antifungal microdilution assay, MIC against Candida tropicalis. Format: cell-based. The conditions noted are these: RCMB05064, 0.49-125 μg/mL tested over 48 h, read-out: Minimum inhibitory concentration C. tropicalis. As for the experimental part:
as §1, §2

≈ marks a conversion by molar mass, not a printed value.

Compound `Fc1ccc(-c2nn(CN3CCOCC3)c(=S)n2/N=C/c2ccc(Cl)cc2)cc1Oc1ccccc1` [Compound 2c] displayed a melting point of 146 °C. Moreover, the MIC in series [1] is 15.6 µg/mL (≈ 29.8 µM). Also, the MIC in series [2] was 15.6 µg/mL (≈ 29.8 µM). Besides, in series [3], the MIC stood at 15.6 µg/mL (≈ 29.8 µM). For the same compound, the MIC in series [4] is 32.2 µg/mL (≈ 61.5 µM). In addition, the MIC in series [5] was 32.2 µg/mL (≈ 61.5 µM).

Regarding `OC(Cn1cncn1)(Cn1cncn1)c1ccc(F)cc1F` [Fluconazole, reference compound], the MIC in series [1] was 0.49 µg/mL (≈ 1.6 µM); in series [2], 0.49 µg/mL (≈ 1.6 µM); in series [3], 0.49 µg/mL (≈ 1.6 µM); in series [4], 1.95 µg/mL (≈ 6.37 µM); in series [5], 0.98 µg/mL (≈ 3.2 µM).

In the case of `Fc1ccc(-c2n[nH]c(=S)n2/N=C/c2cccc(Oc3ccccc3)c2)cc1Oc1ccccc1` [Compound 2e], the melting point was 132 °C. Moreover, in series [1], the MIC turned out to be 1.95 µg/mL (≈ 4.04 µM). Further, the MIC in series [2] is 3.9 µg/mL (≈ 8.08 µM). Moreover, the MIC in series [3] was 1.95 µg/mL (≈ 4.04 µM). Also, in series [4], the MIC turned out to be 7.81 µg/mL (≈ 16.2 µM). Further, the MIC in series [5] was 1.95 µg/mL (≈ 4.04 µM).

In the case of `CSc1nnc(-c2ccc(F)c(Oc3ccccc3)c2)n1N` [Compound 2f, 3-(4-Fluoro-3-phenoxyphenyl)-5-(methylthio)-4H-1,2,4-triazol-4-amine], the melting point is 152 °C. In addition, in series [1], the MIC is 7.81 µg/mL (≈ 24.7 µM). For the same compound, the MIC in series [2] stood at 3.9 µg/mL (≈ 12.3 µM). Further, in series [3], the MIC was 3.9 µg/mL (≈ 12.3 µM). The MIC in series [4] was 7.81 µg/mL (≈ 24.7 µM). The MIC in series [5] was 7.81 µg/mL (≈ 24.7 µM).

For `Nn1c(S)nnc1-c1ccc(F)c(Oc2ccccc2)c1` [Compound 2, 4-amino-5-(4-fluoro-3-phenoxyphenyl)-4H-1,2,4-triazole-3-thiol], the melting point fell in the range of 205 to 207 °C. Further, the MIC in series [1] amounted to 3.9 µg/mL (≈ 12.9 µM). Besides, the MIC in series [2] stood at 7.81 µg/mL (≈ 25.8 µM). Further, the MIC in series [3] worked out at 1.95 µg/mL (≈ 6.45 µM). Further, the MIC in series [4] came to 3.9 µg/mL (≈ 12.9 µM). The MIC in series [5] turned out to be 3.9 µg/mL (≈ 12.9 µM).

On to `Fc1ccc(-c2n[nH]c(=S)n2/N=C/c2ccc(Cl)cc2)cc1Oc1ccccc1` [Compound 2b], for which the melting point came out at 174 °C. The MIC in series [1] was 31.2 µg/mL (≈ 73.5 µM). The MIC in series [2] amounted to 31.2 µg/mL (≈ 73.5 µM). Also, in series [3], the MIC stood at 15.6 µg/mL (≈ 36.8 µM). In addition, in series [4], the MIC amounted to 62.5 µg/mL (≈ 147 µM). Also, the MIC in series [5] came to 62.5 µg/mL (≈ 147 µM).

For the compound `Nn1c(SCc2cnc(Cl)s2)nnc1-c1ccc(F)c(Oc2ccccc2)c1` [Compound 2g, 3-(((2-Chlorothiazol-5-yl)methyl)thio)-5-(4-fluoro-3-phenoxyphenyl)-4H-1,2,4-triazol-4-amine], the melting point stood at 136 °C. For the same compound, the MIC in series [1] was found to be 0.49 µg/mL (≈ 1.13 µM). Besides, the MIC in series [2] was 0.98 µg/mL (≈ 2.26 µM). In addition, in series [3], the MIC amounted to 0.49 µg/mL (≈ 1.13 µM). The MIC in series [4] worked out at 0.98 µg/mL (≈ 2.26 µM). The MIC in series [5] was determined as 0.49 µg/mL (≈ 1.13 µM).

On to `Fc1ccc(-c2n[nH]c(=S)n2/N=C/c2ccccc2)cc1Oc1ccccc1` [Compound 2a], for which the melting point was 189 °C. Besides, the MIC in series [1] was 1.95 µg/mL (≈ 4.99 µM). For the same compound, the MIC in series [2] is 1.95 µg/mL (≈ 4.99 µM). For the same compound, the MIC in series [3] turned out to be 0.98 µg/mL (≈ 2.51 µM). Moreover, in series [4], the MIC was 1.95 µg/mL (≈ 4.99 µM). The MIC in series [5] was found to be 0.98 µg/mL (≈ 2.51 µM).

In turn, `C=CCSc1nnc(-c2ccc(F)c(Oc3ccccc3)c2)n1N` [Compound 2h, 3-(Allylthio)-5-(4-fluoro-3-phenoxyphenyl)-4H-1,2,4-triazol-4-amine] had a melting point of 128 °C. The MIC in series [1] was found to be 0.98 µg/mL (≈ 2.86 µM). Further, the MIC in series [2] worked out at 0.98 µg/mL (≈ 2.86 µM). Besides, the MIC in series [3] stood at 0.49 µg/mL (≈ 1.43 µM). Besides, the MIC in series [4] amounted to 1.95 µg/mL (≈ 5.7 µM). In series [5], the MIC turned out to be 0.49 µg/mL (≈ 1.43 µM).

As for `Fc1ccc(/C=N/n2c(-c3ccc(F)c(Oc4ccccc4)c3)n[nH]c2=S)cc1` [Compound 2d], the melting point is 172 °C. Further, the MIC in series [1] came to 7.81 µg/mL (≈ 19.1 µM). Further, the MIC in series [2] turned out to be 7.81 µg/mL (≈ 19.1 µM). In addition, the MIC in series [3] stood at 7.81 µg/mL (≈ 19.1 µM). Also, the MIC in series [4] turned out to be 15.6 µg/mL (≈ 38.3 µM). Moreover, in series [5], the MIC turned out to be 15.6 µg/mL (≈ 38.3 µM).

The term melting point denotes the temperature of the solid-liquid transition.
